How the values were obtained:
SCT adult rats [1] = assay: Axonal regeneration after SCT (GAP43, 5-HT/GFAP immunostaining, BDA tracing); format: in vivo, rat; conditions: for number of GAP43 axons versus control: especially 1 mm caudal to the injury epicenter
Method: (§1) Rats were randomly divided into the following three experimental groups: 1) untrained + placebo, 2) untrained + SM-345431 and 3) trained + SM-345431. SCT was performed, and SM-345431 or placebo was administered at the lesion site via the newly developed DDS, which is described in detail below. Starting 1 week post-injury, treadmill training commenced with a BSS. Kinematic tests were performed monthly for 3 months after SCT using a rodent robotic device (Rodent robot 3000, Robomedica Inc.) that primarily assessed the performance of plantar stepping on a treadmill. Treadmill training was continued throughout the experimental period.
A total of 53 adult female Sprague-Dawley rats (200-250 g, 10-12 weeks old) were used in this study (3 rats died during the experimental period and were excluded from the statistical analysis). All procedures were approved by the experimental animal care committee of Keio University, School of Medicine and Murayama Medical Center (approval #12-8). All rats were anesthetized with an intraperitoneal injection of ketamine (100 mg/kg)/xylazine (10 mg/kg). The spinal cord at the level of the T10 lamina was exposed by T10 laminectomy, and the dorsal dura mater was opened. The exposed spinal cord was cut along the inner edge of the vertebra with a sharp micro-scissor. Two more cuts were made at the gap of the transected spinal cord by a scalpel to ensure total transection. SM-345431 or placebo was administered to the transected site via the newly developed DDS as described in detail below (Figure 1G-I). After these procedures, the back muscles and skin were closed. Rats were kept warm in an incubator (37°C) after surgery. To prevent dehydration in the rats, 10 ml of saline was subcutaneously injected daily until day 7. Ampicillin (0.4 g/kg) was also injected intramuscularly daily to prevent infection until day 7. The bladder was evacuated manually until autonomous emptying of the bladder was achieved. The re-transection procedure was performed at the same level as the primary SCT (15 rats total; 5 rats from each group). Kinematic data were recorded using similar procedures prior to re-transection surgery (on the same day) and on the day following re-transection surgery. For CST tracing, 10% BDA was injected as follows. Nine weeks after SM-345431 or placebo administration, BDA (10000 MW, Molecular Probes) was injected into six different sites of the sensorimotor cortices of the rats under general anesthesia (site 1: 2.0 mm lateral, 0 mm to bregma; site 2: 2.0 mm lateral, 2 mm posterior to bregma; site 3: 2.0 mm lateral, 4 mm posterior to bregma; site 4: 4 mm lateral, 0 mm to bregma; site 5: 4 mm lateral, 2 mm posterior to bregma and site 6: 4 mm lateral, 4 mm posterior to bregma). For each site, injections were performed at two different depths (1.2 mm and 1.6 mm), and 3 μl of 10% BDA was injected at a rate of 0.15 μl/min using a micro-injector. Three weeks after the BDA injection, rats were sacrificed and used for immunohistochemistry.
A novel matrix silicone preparation was developed to allow continuous drug delivery at the site of injury. The amount of drug released from this matrix silicone preparation in vitro was measured as described in Figure 1. Matrix silicone sheets (0.3 mm thick) containing SM-345431 were trimmed into 3-mm-square pieces to fit into the opened dura. After SCT, one piece of silicone sheet was placed on the transected spinal cord gap so that it could act on the spinal cord directly.
Twelve weeks after SCT, rats were deeply anaesthetized by an intraperitoneal injection of 14% chloral hydrate and then perfused intracardially with 4% paraformaldehyde (PFA) in 0.1 M phosphate-buffered saline (PBS). The spinal cord tissues were dissected and post-fixed in 4% PFA (24 h) and placed in 10% sucrose in 0.1 M PBS (24 h) followed by 30% sucrose in 0.1 M PBS (24 h). All the rats other than 3 rats died during the experimental period were used for the histological analysis. […]

SCT adult rats [2] = assay: Remyelination after SCT (MBP/GAP43 immunostaining, electron microscopy); format: in vivo, rat
Method: as §1
A total of 53 adult female Sprague-Dawley rats (200-250 g, 10-12 weeks old) were used in this study (3 rats died during the experimental period and were excluded from the statistical analysis). All procedures were approved by the experimental animal care committee of Keio University, School of Medicine and Murayama Medical Center (approval #12-8). All rats were anesthetized with an intraperitoneal injection of ketamine (100 mg/kg)/xylazine (10 mg/kg). The spinal cord at the level of the T10 lamina was exposed by T10 laminectomy, and the dorsal dura mater was opened. […] Kinematic data were recorded using similar procedures prior to re-transection surgery (on the same day) and on the day following re-transection surgery. […]

[3] = SM-345431 combined with treadmill training
[4] = SM-345431 via silicone DDS alone

SMILES: CC(=O)c1cc2c(=O)c3c(C(=O)O)c(O)c(O)cc3oc2c(C(C)=O)c1-c1coc2cc(O)c(O)c(C(=O)O)c2c1=O [SM-345431, Vinaxanthone]
- 5-HT-positive axons penetrating the GFAP-negative scar tissue versus control (SCT adult rats [1]; [3]): significantly more 5-HT-positive axons penetrated the GFAP-negative scar tissue area
- CST axon regeneration (BDA tracing) (SCT adult rats [1]; [3]): no clear CST regeneration beyond the lesion epicenter was observed
- number of GAP43 axons versus control (SCT adult rats [1]; [3]): significantly increased
- 5-HT-positive axons penetrating the GFAP-negative scar tissue versus control (SCT adult rats [1]; [4]): significantly more 5-HT-positive axons penetrated the GFAP-negative scar tissue area
- CST axon regeneration (BDA tracing) (SCT adult rats [1]; [4]): no obvious CST regeneration beyond the lesion epicenter was observed
- number of GAP43 axons versus control (SCT adult rats [1]; [4]): significantly increased
- remyelination of axons (myelinated GAP43-positive axons at the lesion site) (SCT adult rats [2]; SM-345431 alone, 12 weeks post-injury): significantly enhanced the remyelination of axons
- remyelination of axons (myelinated GAP43-positive axons at the lesion site) (SCT adult rats [2]; SM-345431 plus treadmill training, compared with SM-345431 alone): additional remyelination was not observed
